“And” between values parts separate entries of the source, which are not always exact repeats. Equal values may be shown once. Results filed as inconclusive are left out.

These results are taken from PubChem BioAssay AID228 (DTP/NCI, 2004).

The test system of the test is BDF1 mice, Friend leukemia sc, tumor weight T/C. Put plainly: NCI In Vivo Anticancer Drug Screen. Data for tumor model Friend Virus Leukemia (Solid) (subcutaneous) in B6D2F1 (BDF1) mice. Particulars: endpoint: mean tumor weight, higher = larger tumour. The protocol: The antitumor activity of compounds was measured in mice bearing transplantable tumors. Survival or tumor size were measured and the results are expressed as the measurement made in the treated group (T) divided by the measurement made in the vehicle treated control group (C). The tumor model used in this assay is Friend Virus Leukemia (Solid) (subcutaneous) in B6D2F1 (BDF1) mice

Setting [1] is: dose: 0.6 mg/kg/injection, schedule: Q01DX011 (ip), vehicle: carboxymethylcellulose (CMC).
[2] abbreviates: dose: 10.0 mg/kg/injection, schedule: Q01DX011 (sc), vehicle: steriod suspending solution.
[3] abbreviates: dose: 20.0 mg/kg/injection, schedule: Q01DX011 (sc), vehicle: steriod suspending solution.
Setting [4] is: dose: 100.0 mg/kg/injection, schedule: Q01DX011 (sc), vehicle: steriod suspending solution.
Where [5] appears, read: dose: 200.0 mg/kg/injection, schedule: Q01DX011 (sc), vehicle: steriod suspending solution.

With `O=C1N(Cl)C(=O)C(c2ccc(Cl)cc2)(c2ccc(Cl)cc2)N1Cl`, the T/C (dose: 15.0 mg/kg/injection, schedule: Q01DX011 (ip), vehicle: carboxymethylcellulose (CMC)) is 56 % of control; the T/C (dose: 30.0 mg/kg/injection, schedule: Q01DX011 (ip), vehicle: carboxymethylcellulose (CMC)) is 42 % of control; the T/C (dose: 60.0 mg/kg/injection, schedule: Q01DX011 (ip), vehicle: carboxymethylcellulose (CMC)) is 33 % of control; the T/C (dose: 120.0 mg/kg/injection, schedule: Q01DX011 (ip), vehicle: carboxymethylcellulose (CMC)) is 47 % of control.
For the compound `O=C1C=CC(=O)O1` (tested in a mixture with another compound), the T/C is, setting by setting: (dose: 7.5 mg/kg/injection, schedule: Q#A X022 (ip), vehicle: carboxymethylcellulose (CMC)) 58 % of control; (dose: 15.5 mg/kg/injection, schedule: Q#A X022 (ip), vehicle: carboxymethylcellulose (CMC)) 84 % of control; (dose: 125.0 mg/kg/injection, schedule: Q#A X022 (ip), vehicle: carboxymethylcellulose (CMC)) 96 % of control; (dose: 250.0 mg/kg/injection, schedule: Q#A X022 (ip), vehicle: carboxymethylcellulose (CMC)) 33 % of control.
For the compound `NC(=O)n1cccn1`, the T/C is 107 % of control (dose: 25.0 mg/kg/injection, schedule: Q01DX011 (ip), vehicle: other); 120 % of control (dose: 50.0 mg/kg/injection, schedule: Q01DX011 (ip), vehicle: other); 78 % of control (dose: 100.0 mg/kg/injection, schedule: Q01DX011 (ip), vehicle: other); 13 % of control (dose: 150.0 mg/kg/injection, schedule: Q01DX011 (ip), vehicle: other); 28 % of control (dose: 200.0 mg/kg/injection, schedule: Q01DX011 (ip), vehicle: other).
For `Cc1ccc(N=NN(C)C)cc1`, the T/C reads like this: (dose: 25.0 mg/kg/injection, schedule: Q01DX011 (ip), vehicle: carboxymethylcellulose (CMC)) 110 % of control; (dose: 50.0 mg/kg/injection, schedule: Q01DX011 (ip), vehicle: carboxymethylcellulose (CMC)) 90 % of control; (dose: 100.0 mg/kg/injection, schedule: Q01DX011 (ip), vehicle: carboxymethylcellulose (CMC)) 28 % of control.
In the case of `CN(C)Nc1ncnc2nc[nH]c12`, the T/C by setting is: (dose: 5.0 mg/kg/injection, schedule: Q01DX011 (ip), vehicle: carboxymethylcellulose (CMC)) 74 % of control; (dose: 10.0 mg/kg/injection, schedule: Q01DX011 (ip), vehicle: carboxymethylcellulose (CMC)) 80 % of control; (dose: 20.0 mg/kg/injection, schedule: Q01DX011 (ip), vehicle: carboxymethylcellulose (CMC)) 59 % of control and 65 % of control; (dose: 40.0 mg/kg/injection, schedule: Q01DX011 (ip), vehicle: carboxymethylcellulose (CMC)) 17 % of control and 35 % of control.
As to `S=P(N1CC1)(N1CC1)N1CC1`, the T/C by setting is: (dose: 0.3 mg/kg/injection, schedule: Q01DX011 (ip), vehicle: carboxymethylcellulose (CMC)) 79 % of control; under setting [1], 73 % of control; (dose: 0.96 mg/kg/injection, schedule: Q01DX011 (ip), vehicle: carboxymethylcellulose (CMC)) 72 % of control; (dose: 1.6 mg/kg/injection, schedule: Q01DX011 (ip), vehicle: carboxymethylcellulose (CMC)) 99 % of control; (dose: 2.4 mg/kg/injection, schedule: Q01DX011 (ip), vehicle: carboxymethylcellulose (CMC)) 61 % of control and 73 % of control.
On to `CC[C@]1(O)C[C@H]2CN(CCc3c([nH]c4ccccc34)[C@@](C(=O)OC)(c3cc4c(cc3OC)N(C)[C@H]3[C@@](O)(C(=O)OC)[C@H](OC(C)=O)[C@]5(CC)C=CCN6CC[C@]43[C@@H]65)C2)C1`, for which the T/C is, setting by setting: (dose: 0.12 mg/kg/injection, schedule: Q01DX011 (ip), vehicle: carboxymethylcellulose (CMC)) 103 % of control; (dose: 0.24 mg/kg/injection, schedule: Q01DX011 (ip), vehicle: carboxymethylcellulose (CMC)) 53 % of control.
Turning to `CCCCNc1ncnc2c1cnn2C`, the T/C reads like this: (dose: 4.0 mg/kg/injection, schedule: Q01DX011 (ip), vehicle: saline) 150 % of control; (dose: 16.0 mg/kg/injection, schedule: Q01DX011 (ip), vehicle: saline) 117 % of control; (dose: 31.0 mg/kg/injection, schedule: Q01DX011 (ip), vehicle: saline) 84 % of control.
In the case of `CC1NC(=O)NC1CCCCCC(=O)O` (stereo not drawn), the T/C was 169 % of control (dose: 89.0 mg/kg/injection, schedule: Q01DX011 (ip), vehicle: carboxymethylcellulose (CMC)) and 119 % of control (dose: 178.0 mg/kg/injection, schedule: Q01DX011 (ip), vehicle: carboxymethylcellulose (CMC)).
Regarding `C[C@H]1C(=O)O[C@@H]2CCN3CC=C(COC(=O)[C@](C)(O)[C@@]1(C)O)[C@H]23`, the T/C is, setting by setting: (dose: 31.0 mg/kg/injection, schedule: Q01DX011 (ip), vehicle: carboxymethylcellulose (CMC)) 95 % of control; (dose: 62.5 mg/kg/injection, schedule: Q01DX011 (ip), vehicle: carboxymethylcellulose (CMC)) 61 % of control; (dose: 125.0 mg/kg/injection, schedule: Q01DX011 (ip), vehicle: carboxymethylcellulose (CMC)) 66 % of control; (dose: 250.0 mg/kg/injection, schedule: Q01DX011 (ip), vehicle: carboxymethylcellulose (CMC)) 38 % of control.
As to `C[C@]12C=CC(=O)C=C1CC[C@@H]1[C@@H]2C(=O)C[C@@]2(C)[C@H]1CC[C@]2(O)C(=O)CO`, the T/C is 92 % of control under setting [2]; 27 % of control under setting [3]; 23 % of control (dose: 25.0 mg/kg/injection, schedule: Q01DX011 (sc), vehicle: steriod suspending solution); 11 % of control (dose: 50.0 mg/kg/injection, schedule: Q01DX011 (sc), vehicle: steriod suspending solution); 9 % of control under setting [4]; 11 % of control under setting [5].
`CN(C)N=Nc1n[nH]nc1C(N)=O`: the T/C was 75 % of control (dose: 250.0 mg/kg/injection, schedule: Q01DX011 (ip), vehicle: saline) and 40 % of control (dose: 375.0 mg/kg/injection, schedule: Q01DX011 (ip), vehicle: saline).
On to `CC(=O)OCC(=O)[C@@]1(O)CC[C@H]2[C@@H]3CCC4=CC(=O)CC[C@]4(C)[C@H]3[C@@H](O)C[C@@]21C`, for which the T/C runs as follows: (dose: 2.25 mg/kg/injection, schedule: Q01DX011 (sc), vehicle: steriod suspending solution) 267 % of control; (dose: 8.5 mg/kg/injection, schedule: Q01DX011 (sc), vehicle: steriod suspending solution) 73 % of control; (dose: 9.0 mg/kg/injection, schedule: Q01DX011 (sc), vehicle: steriod suspending solution) 88 % of control; (dose: 17.0 mg/kg/injection, schedule: Q01DX011 (sc), vehicle: steriod suspending solution) 105 % of control; (dose: 30.0 mg/kg/injection, schedule: Q01DX011 (sc), vehicle: steriod suspending solution) 44 % of control; (dose: 60.0 mg/kg/injection, schedule: Q01DX011 (sc), vehicle: steriod suspending solution) 32 % of control. In addition, the T/C (dose: 68.0 mg/kg/injection, schedule: Q01DX011 (sc), vehicle: steriod suspending solution) is 60 % of control and the T/C (dose: 90.0 mg/kg/injection, schedule: Q01DX011 (sc), vehicle: steriod suspending solution) was 29 % of control.
Regarding `Nc1ncnc2c1ccn2C1OC(CO)C(O)C1O` (stereo not drawn), the T/C is 104 % of control under setting [1] and 72 % of control (dose: 1.25 mg/kg/injection, schedule: Q01DX011 (ip), vehicle: carboxymethylcellulose (CMC)).
For `Nc1nc(=S)c2[nH]cnc2[nH]1`, the T/C runs as follows: (dose: 0.25 mg/kg/injection, schedule: Q01DX011 (ip), vehicle: carboxymethylcellulose (CMC)) 53 % of control and 47 % of control; (dose: 0.4 mg/kg/injection, schedule: Q01DX011 (ip), vehicle: carboxymethylcellulose (CMC)) 33 % of control and 36 % of control; (dose: 0.66 mg/kg/injection, schedule: Q01DX011 (ip), vehicle: carboxymethylcellulose (CMC)) 23 % of control and 26 % of control.
Consider `C[C@]12CC[C@@H]3c4ccc(O)cc4CC[C@H]3[C@@H]1CC[C@@H]2O`, for which the T/C is 74 % of control (dose: 1.0 mg/kg/injection, schedule: Q01DX011 (sc), vehicle: steriod suspending solution); 104 % of control (dose: 5.0 mg/kg/injection, schedule: Q01DX011 (sc), vehicle: steriod suspending solution); 71 % of control under setting [2]; 73 % of control under setting [3]; 61 % of control (dose: 40.0 mg/kg/injection, schedule: Q01DX011 (sc), vehicle: steriod suspending solution); 75 % of control (dose: 80.0 mg/kg/injection, schedule: Q01DX011 (sc), vehicle: steriod suspending solution). The T/C runs as follows: under setting [4], 103 % of control; (dose: 150.0 mg/kg/injection, schedule: Q01DX011 (sc), vehicle: steriod suspending solution) 106 % of control; under setting [5], 101 % of control; (dose: 400.0 mg/kg/injection, schedule: Q01DX011 (sc), vehicle: steriod suspending solution) 110 % of control; (dose: 500.0 mg/kg/injection, schedule: Q01DX011 (sc), vehicle: steriod suspending solution) 86 % of control and 107 % of control.
